Like-named read-outs stand apart in the source and are kept apart here.
Tested on: hiPSC-CMs (iCell-Cardiomyocytes^2)
Outline: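 Monolayers of hiPSC-CMs on fibronectin-coated MEA plates, 50 K/well, kept at 37°C, 5% CO2; compounds added in 0.1% final DMSO after 5-min baseline. Field potential and impedance parameters expressed as mean ± SD percent change from baseline; arrhythmic events noted; cytotoxicity fluorescence normalized to DMSO, Kruskal-Wallis.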

## COc1nc(N)nc2c1ncn2[C@@H]1O[C@H](COP(=O)(N[C@@H](C)C(=O)OCC(C)(C)C)Oc2cccc3ccccc23)[C@@H](O)[C@@]1(C)O (stereo partly shown) [BMS-986094]
0.3 µM, 2h
  BR (beating rate), % change from baseline: 5±3%
  Beating below threshold, number of observations/total well numbers: 0/5
  Cessation of beating, number of observations/total well numbers: 0/5
  EAD, number of observations/total well numbers: 0/5
  FPD (field-potential duration), % change from baseline: 0.5±1%
  FPDc (field-potential duration corrected by beat-rate), % change from baseline: 2.1±1.1%
  Flat T-wave-like, number of observations/total well numbers: 0/5
0.3 µM, 24h
  BR (beating rate), % change from baseline: 8±3%
  Beating below threshold, number of observations/total well numbers: 0/5
  Cessation of beating, number of observations/total well numbers: 0/5
  EAD, number of observations/total well numbers: 0/5
  FPD (field-potential duration), % change from baseline: -5.3±4.1%
  FPDc (field-potential duration corrected by beat-rate), % change from baseline: -2.7±3.8%
  Flat T-wave-like, number of observations/total well numbers: 0/5
0.3 µM, 48h
  BR (beating rate), % change from baseline: 14±5%
  Beating below threshold, number of observations/total well numbers: 0/5
  Cessation of beating, number of observations/total well numbers: 0/5
  EAD, number of observations/total well numbers: 0/5
  FPD (field-potential duration), % change from baseline: -12.4±4.7%
  FPDc (field-potential duration corrected by beat-rate), % change from baseline: -8.4±4.1%
  Flat T-wave-like, number of observations/total well numbers: 0/5
0.3 µM, 72h
  BR (beating rate), % change from baseline: 22±3 %
  Beating below threshold, number of observations/total well numbers: 0/5
  Cessation of beating, number of observations/total well numbers: 0/5
  EAD, number of observations/total well numbers: 0/5
  FPD (field-potential duration), % change from baseline: -17.3±3.6 %
  FPDc (field-potential duration corrected by beat-rate), % change from baseline: -11.6±3.5 %
  Flat T-wave-like, number of observations/total well numbers: 0/5
0.3 µM, 96h
  BR (beating rate), % change from baseline: 30±11 %
  Beating below threshold, number of observations/total well numbers: 0/5
  Cessation of beating, number of observations/total well numbers: 0/5
  EAD, number of observations/total well numbers: 0/5
  FPD (field-potential duration), % change from baseline: -20.4±2.9 %
  FPDc (field-potential duration corrected by beat-rate), % change from baseline: -14.3±1.9 %
  Flat T-wave-like, number of observations/total well numbers: 1/5
1 µM, 2h
  BR (beating rate), % change from baseline: 6±2%
  Beating below threshold, number of observations/total well numbers: 0/5
  Cessation of beating, number of observations/total well numbers: 0/5
  EAD, number of observations/total well numbers: 0/5
  FPD (field-potential duration), % change from baseline: -3.6±2.3%
  FPDc (field-potential duration corrected by beat-rate), % change from baseline: -1.8±2.1%
  Flat T-wave-like, number of observations/total well numbers: 1/5
1 µM, 24h
  BR (beating rate), % change from baseline: 17±5%
  Beating below threshold, number of observations/total well numbers: 0/5
  Cessation of beating, number of observations/total well numbers: 0/5
  EAD, number of observations/total well numbers: 0/5
  FPD (field-potential duration), % change from baseline: -10.7±2.3 %
  FPDc (field-potential duration corrected by beat-rate), % change from baseline: -6±2.7%
  Flat T-wave-like, number of observations/total well numbers: 0/5
1 µM, 48h
  BR (beating rate), % change from baseline: 12±3%
  Beating below threshold, number of observations/total well numbers: 0/5
  Cessation of beating, number of observations/total well numbers: 0/5
  EAD, number of observations/total well numbers: 0/5
  FPD (field-potential duration), % change from baseline: -5.8±3 %
  FPDc (field-potential duration corrected by beat-rate), % change from baseline: -2.5±2.1 %
  Flat T-wave-like, number of observations/total well numbers: 3/5
1 µM, 72h
  BR (beating rate), % change from baseline: 17±6 %
  Beating below threshold, number of observations/total well numbers: 0/5
  Cessation of beating, number of observations/total well numbers: 0/5
  EAD, number of observations/total well numbers: 0/5
  FPD (field-potential duration), % change from baseline: -7.5±0 %
  FPDc (field-potential duration corrected by beat-rate), % change from baseline: -2.3±0%
  Flat T-wave-like, number of observations/total well numbers: 4/5
1 µM, 96h
  BR (beating rate), % change from baseline: 14±8 %
  Beating below threshold, number of observations/total well numbers: 0/5
  Cessation of beating, number of observations/total well numbers: 0/5
  EAD, number of observations/total well numbers: 0/5
  FPD (field-potential duration), % change from baseline: -7.9±0 %
  FPDc (field-potential duration corrected by beat-rate), % change from baseline: -5.5±0 %
  Flat T-wave-like, number of observations/total well numbers: 4/5
3 µM, 72h
  BR (beating rate), % change from baseline: 12±6 %
  Beating below threshold, number of observations/total well numbers: 0/5
  Cessation of beating, number of observations/total well numbers: 0/5
  EAD, number of observations/total well numbers: 0/5
  Flat T-wave-like, number of observations/total well numbers: 5/5
3 µM, 96h
  BR (beating rate), % change from baseline: 20±12 %
  Beating below threshold, number of observations/total well numbers: 0/5
  Cessation of beating, number of observations/total well numbers: 1/5
  EAD, number of observations/total well numbers: 0/5
  Flat T-wave-like, number of observations/total well numbers: 4/5
3 µM, 2h
  BR (beating rate), % change from baseline: 7±1%
  Beating below threshold, number of observations/total well numbers: 0/5
  Cessation of beating, number of observations/total well numbers: 0/5
  EAD, number of observations/total well numbers: 0/5
  FPD (field-potential duration), % change from baseline: -3.6±1.9%
  FPDc (field-potential duration corrected by beat-rate), % change from baseline: -1.6±1.8%
  Flat T-wave-like, number of observations/total well numbers: 0/5
3 µM, 24h
  BR (beating rate), % change from baseline: 20±3 %
  Beating below threshold, number of observations/total well numbers: 0/5
  Cessation of beating, number of observations/total well numbers: 0/5
  EAD, number of observations/total well numbers: 0/5
  FPD (field-potential duration), % change from baseline: -17±4.9 %
  FPDc (field-potential duration corrected by beat-rate), % change from baseline: -11.8±5.5 %
  Flat T-wave-like, number of observations/total well numbers: 0/5
3 µM, 48h
  BR (beating rate), % change from baseline: 13±3%
  Beating below threshold, number of observations/total well numbers: 0/5
  Cessation of beating, number of observations/total well numbers: 0/5
  EAD, number of observations/total well numbers: 0/5
  FPD (field-potential duration), % change from baseline: -0.5±0%
  FPDc (field-potential duration corrected by beat-rate), % change from baseline: 2.6±0%
  Flat T-wave-like, number of observations/total well numbers: 4/5
10 µM, 2h
  BR (beating rate), % change from baseline: 4±8%
  Beating below threshold, number of observations/total well numbers: 0/5
  Cessation of beating, number of observations/total well numbers: 0/5
  EAD, number of observations/total well numbers: 0/5
  FPD (field-potential duration), % change from baseline: -5.7±2.3%
  FPDc (field-potential duration corrected by beat-rate), % change from baseline: -4.4±2.8 %
  Flat T-wave-like, number of observations/total well numbers: 0/5
10 µM, 24h
  BR (beating rate), % change from baseline: 30±4 %
  Beating below threshold, number of observations/total well numbers: 0/5
  Cessation of beating, number of observations/total well numbers: 0/5
  EAD, number of observations/total well numbers: 0/5
  FPD (field-potential duration), % change from baseline: -24.2±3.7 %
  FPDc (field-potential duration corrected by beat-rate), % change from baseline: -17.1±3.6 %
  Flat T-wave-like, number of observations/total well numbers: 1/5
10 µM, 48h
  BR (beating rate), % change from baseline: 24±6 %
  Beating below threshold, number of observations/total well numbers: 0/5
  Cessation of beating, number of observations/total well numbers: 0/5
  EAD, number of observations/total well numbers: 0/5
  FPD (field-potential duration), % change from baseline: -10.6±0 %
  FPDc (field-potential duration corrected by beat-rate), % change from baseline: -2.4±0 %
  Flat T-wave-like, number of observations/total well numbers: 4/5
10 µM, 72h
  BR (beating rate), % change from baseline: 32±14 %
  Beating below threshold, number of observations/total well numbers: 0/5
  Cessation of beating, number of observations/total well numbers: 0/5
  EAD, number of observations/total well numbers: 0/5
  Flat T-wave-like, number of observations/total well numbers: 5/5
10 µM, 96h
  BR (beating rate), % change from baseline: 29±0 %
  Beating below threshold, number of observations/total well numbers: 1/5
  Cessation of beating, number of observations/total well numbers: 3/5
  EAD, number of observations/total well numbers: 0/5
  Flat T-wave-like, number of observations/total well numbers: 1/5
72 h and 96 h, two highest concentrations (10 and 1 µM)
  T-wave morphology: flattening of the T-wave
